Data from patent US5208223A, “Phosphocholine derivative inhibitors of phospholipase A2” (American Cyanamid Company, priority 1992, dated 1993).
Where “and” joins values, the source holds several entries; their conditions need not be identical. Equal values may be shown once. Where a name gives a salt, the structure may show the parent alone. Read-outs that look alike come from different tables or passages of the source.

Legend:
Assay type in all cases: biochemical
[1] = molecular target: T1, porcine pancreatic PLA2 (Sus scrofa, UniProt P00592); test: MHPLA2 assay: in vitro porcine pancreatic phospholipase A2, mixed micelle design, [s]=10 μm; details: for % Inh.: subs. con. 10
T1 construct: purchased Sigma
T1 sequence (P00592 23-146): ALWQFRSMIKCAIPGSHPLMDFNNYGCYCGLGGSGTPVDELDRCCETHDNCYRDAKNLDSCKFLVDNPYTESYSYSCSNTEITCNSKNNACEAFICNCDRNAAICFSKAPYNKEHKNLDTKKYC
Method: (§1) Phospholipase A2 activity was measured by a radiochemical assay in which labeled synthetic phosphatidylcholine substrate is converted by porcine pancreatic PLA2 to free radiolabeled arachidonate and lyso PC. Radiolabeled arachidonate is extracted from the reaction mixture and separated from unreacted substrate by column chromatography or TLC. Radioactivity (cpm) in samples is quantitated by liquid scintillation counting. Specific details are as follows:
(§2) Labeled substrate(1-stearyl-2-^3 H-arachidonylphosphatidylcholine; Amersham, sp. act. 84 (uCi/mmole, 0.025 to 0.2 uCi/assay tube and unlabeled substrates (Avanti), in sufficient quantity to give 20,000 cpm to 50,000 cpm and 10 μM to 1,000 μM final concentration/assay tube are dried under a stream of nitrogen. The PLA2 and mPLA2 assays utilized a […] substrate concentration. The mHPLA2 and HPLA2 assays (vida infra) utilized a 10 μM substrate concentration and the SmPLA2 assay utilized a substrate concentration ranging from 100 to 1000 μm. The substrate is then redissolved in 0.1M tris-HCl buffer, pH 9.0 containing 10 mM CaCl2 and 10 mM Na taurocholate detergent. The mixture is sonicated in a Kontes Sonifier to yield a homogeneous dispersion. The "mixed" micellar substrate is clear. An aliquot is reserved for a cpm count (total substrate). The total reaction volume is 500 μL; siliconized glassware or plasticware is used throughout. Enzyme (Sigma, sp. act.>690 U/mg protein and preferably 900 U/mg protein) is diluted 1:750 or 1:1000 in 0.1M tris-HCl buffer, pH 9.0 (without Ca^++ and detergent). Enzyme dilution depends on substrate concentration and required enzyme concentration.
(§3) The substrate in buffer is kept on ice until the reaction is started. The reaction is started by adding 10 μL of diluted enzyme solution to 490 μL of micellar substrate solution. Samples are incubated in a 37° C. water bath for 15 minutes with gentle mixing. The reaction is terminated by the addition of 100 μL of 1M fresh trichloroacetic acid (TCA) solution and chilling the tubes on ice for 30 minutes.
(§4) Samples (600 μL) are extracted with 3 ml CHCl3 /MeOH (2:1) for thin layer chromatography or in hexane/ether (9:1) for column chromatography. The phases are separated by gentle centrifugation at 700 rpm×5'. The organic phase is recovered.
(§5) Labeled arachidonate extracted with CHCl3 /MeOH is separated on silica gel G TLC plates (Analtech). Twenty μL of a 2 mg/ml internal standard solution of arachidonic acid (Sigma) is combined with 2-3 ml of the organic phase. The entire mixture is dried under nitrogen and redissolved in 50 μL of CHCl3 /MeOH (2:1). A 20 μL sample is counted in 10 ml of Beckman Redi-solv HP and spotted on silica gel G plates. The solvent system used to develop the plate is CHCl3 /MeOH/13.5N NH3 /H2 O (70:30:4:1). Plates are developed in a glass chamber for 1-11/2 hours, air dried, and the spots visualized in an iodine vapor chamber. Standards of phosphatidylcholine, lyso PC, and arachidonic acid (Sigma) are made as 2 mg/ml stocks in CHCl3 /MeOH (2:1) and spotted on plates. Spots corresponding to arachidonate and phospholipid are scraped and counted in 10 ml Beckman Redi-Solv HP scintillation fluid.
(§6) Samples are extracted with hexane/ether and the upper organic phase recovered. An aliquot is applied to a Silicar CC4 (Malincrodt) column. Columns are prepared using 1 ml of a 1:1 slurry of silicar CC4 in hexane/ether in a Pasteur pipet (approx. 2 cm height). Columns are rinsed with 500 μL of hexane/ether before adding the sample (300-600 μL) to the column. Columns are eluted with a total of 6 ml of hexane/ether. The 6 ml sample is counted in 10 ml of Beckman Redi-Solv HP scintillation fluid.
(§7) or the phospholipase A2 assay, compounds are prepared as 1 mg/ml stock solutions in MeOH and diluted appropriately in PBS. […]

[2] = molecular target: T1, porcine pancreatic PLA2; test: PLA2 assay: in vitro porcine pancreatic phospholipase A2, preincubation of drug+enzyme, substrate 2 nM; details: preincubation, subs. con. 2; for inhibition at 25 µg/mL: dose 25 μ/ml; for inhibition at 50 µg/mL: dose 50 μ/ml
Method: as §1, §2, §3, §4, §5, §6
or the phospholipase A2 assay, compounds are prepared as 1 mg/ml stock solutions in MeOH and diluted appropriately in PBS.

[3] = molecular target: T1, porcine pancreatic PLA2; test: MPLA2 assay: in vitro porcine pancreatic phospholipase A2, mixed micelle design, substrate 2 nM; details: for inhibition at 25 µg/mL / % Inh.: dose 25 μ/ml; for inhibition at 25 µg/mL / inhibition at 10 µg/mL / inhibition at 20 µg/mL: subs. con. 2, read-out: % Inh.; for % Inh. / IC50: subs. con. 2; for inhibition at 10 µg/mL: dose 10 μ/ml; for inhibition at 20 µg/mL: dose 20 μ/ml
Method: as §1, §2, §3, §4, §5, §6, §7

[4] = dose 10 μ/ml, subs. con. 10, read-out: % Inh.
[5] = read-out: IC50 Avg. (converted)
[6] = dose 10 μ/ml, read-out: % Inh. Avg.
[7] = dose 25 μ/ml, subs. con. 10, read-out: % Inh.
[8] = dose 25 μ/ml, subs. con. 10, read-out: % Inh. Avg.

SMILES: CCCCCCCCCCCCCCCCOCC(COP(=O)([O-])OCC[N+](C)(C)C)OP(=O)(OC)OCCCCCCCCCCCCCCCC (stereo not shown) [3,5,8,10-Tetraoxa-4,9-diphosphahexacosan-1-aminium, 7-[(hexadecyloxy)methyl]-4-hydroxy-9-methoxy-N,N,N-trimethyl-hydroxide, inner salt, 4,9-dioxide]
- inhibition at 10 µg/mL [1, 4]: 0%
- inhibition at 10 µg/mL ([2]; dose 10 μ/ml, read-out: % Inh.): 61%
- inhibition at 20 µg/mL ([2]; dose 20 μ/ml, read-out: % Inh.): 65%
- inhibition at 25 µg/mL ([2]; read-out: % Inh.): 71%
- inhibition at 25 µg/mL ([2]; read-out: % Inh. Avg.): 77%
- inhibition at 50 µg/mL ([2]; read-out: % Inh.): 73% and 88%
- inhibition at 50 µg/mL ([2]; read-out: % Inh. Avg.): 80%
- IC50 ([2]; read-out: IC50 (converted)): 7.5 µM and 5.62 µM and 7.25 µM
- IC50 [2, 5]: 6.75 µM

SMILES: CCCCCCCCCCCCCCCCOCC(COP(=O)([O-])OCC[N+](C)(C)C)CC1CO1 (stereo not shown) [4-Hydroxy-N,N,N-trimethyl-7-(oxiranylmethyl)-3,5,9-trioxa-4-phosphapentacosan-1-aminium, hydroxide, inner salt, 4-oxide]
- inhibition at 25 µg/mL [3]: 85%
- inhibition at 10 µg/mL ([2]; dose 10 μ/ml, read-out: % Inh.): 71%
- inhibition at 10 µg/mL [2, 6]: 74%
- inhibition at 20 µg/mL ([2]; dose 20 μ/ml, read-out: % Inh.): 88%
- IC50 ([2]; read-out: IC50 (converted)): 4.6 µM

SMILES: CCCCCOCC(COP(=O)([O-])OCC[N+](C)(C)C)OP(=O)(OC)OCCCCC (single isomer, unassigned; more polar) [3,5,8,10-Tetraoxa-4,9 diphosphapentadecan-1-aminium, 4-hydroxy-9-methoxy-N,N,N-trimethyl-7-[(pentyloxy)methyl]-, hydroxide, inner salt, 4,9-dioxide, more polar isomer]
- % Inh. [3]: STIM
- inhibition at 25 µg/mL [1, 7]: 0%
- inhibition at 10 µg/mL ([2]; dose 10 μ/ml, read-out: % Inh.): 5%
- inhibition at 20 µg/mL ([2]; dose 20 μ/ml, read-out: % Inh.): 11%

SMILES: C=C(CC(COCCCCCCCCCCCCCCCC)COP(=O)([O-])OCC[N+](C)(C)C)C(F)(F)CCCCCCCCCCCCCCCC (stereo not shown) [3,5,9-Trioxa-4-phosphapentacosan-1-aminium, 7-(3,3-difluoro-2-methylenenonadecyl)-4-hydroxy-N,N,N-trimethyl-, hydroxide, inner salt, 4-oxide]
- inhibition at 25 µg/mL [3]: 80%
- inhibition at 25 µg/mL [1, 7]: 11%
- inhibition at 10 µg/mL ([2]; dose 10 μ/ml, read-out: % Inh.): 38%
- inhibition at 20 µg/mL ([2]; dose 20 μ/ml, read-out: % Inh.): 38%

SMILES: CCCCCCCCCCCCCCCCOCC(COP(=O)([O-])OCC[N+](C)(C)C)OC(=O)CCl (stereo not shown) [7-[(Chloroacetyl)oxy]-4-hydroxy-N,N,N-trimethyl-3,5,9-trioxa-4-phosphapentacosan-1-aminium, hydroxide, inner salt, 4-oxide]
- inhibition at 10 µg/mL [3]: 46%
- inhibition at 20 µg/mL [3]: 72%
- IC50 [3]: 17.4 µM
- inhibition at 10 µg/mL [1, 4]: 27%
- inhibition at 25 µg/mL [1, 8]: 3%

SMILES: CCCCCCCCCCCCCCCCOCC(COP(=O)([O-])OCC[N+](C)(C)C)OC(=O)CBr (stereo not shown) [3,5,9-Trioxa-4-phosphapentacosan-1-aminium, 7-[(bromoacetyl)oxy]-4-hydroxy-N,N,N-trimethyl-, hydroxide, inner salt, 4-oxide]
- inhibition at 10 µg/mL [3]: 52%
- inhibition at 20 µg/mL [3]: 85%
- IC50 [3]: 8.13 µM
- inhibition at 10 µg/mL [1, 4]: 35%
- inhibition at 10 µg/mL ([1]; dose 10 μ/ml, subs. con. 10, read-out: % Inh. Avg.): 32%
- inhibition at 25 µg/mL [1, 7]: 78%
- inhibition at 25 µg/mL [1, 8]: 50%
- IC50 ([1]; subs. con. 10, read-out: IC50 Avg. (converted)): 83 µM

SMILES: CCCCCCCCCCCCCCCCOCC(COP(=O)([O-])OCC[N+](C)(C)C)OP(=O)(OC)OCCCCC (single isomer, unassigned) [3,5,8,10-Tetraoxa-4,9-diphosphapentadecan-1-aminium, 7-[(hex] [3,5,8,10-Tetraoxa-4,9-diphosphapentadecan-1-aminium, 7-[(hexadecyloxy)methyl]-4-hydroxy-9-methoxy-N,N,N-trimethyl-, hydroxide, 4-(inner salt),4,9-dioxide, more polar isomer]
- % Inh. [3]: STIM
- % Inh. ([2]; dose 10 μ/ml): 82%
- % Inh. ([2]; dose 20 μ/ml): 89%

SMILES: CCCCCCCCCCCCCCCCOCC(COP(=O)([O-])OCC[N+](C)(C)C)OP(=O)(OC)OCCCCCCCCCCCCCCCC (stereo not shown) [3,5,8,10-Tetraoxa-4,9-diphosphahexacosan-1-aminium, 7-[(hexadecyloxy)methyl]-4-hydroxy-9-methoxy-N,N,N-trimethyl-, hydroxide, inner salt, 4,9-dioxide]
- inhibition at 25 µg/mL [1, 8]: 62%
- IC50 ([2]; read-out: IC50 (converted)): 4 µM and 3.5 µM
- IC50 [2, 5]: 3.75 µM

SMILES: CCCCCCCCCCCCCCCCOC[C@@H](COP(=O)([O-])OCC[N+](C)(C)C)OP(=O)(O)OCCCCCCCCCCCCCCCC [3,5,8,10-Tetraoxa-4,9-diphosphahexacosan-1-aminium, 7-[(hexadecyloxy)methyl]-4,9-dihydroxy-N,N,N-trimethyl-, hydroxide, 4-(inner salt), 4,9-dioxide, (7S)]
- % Inh. ([1]; dose 10 μ/ml): STIM
- % Inh. ([1]; dose 25 μ/ml): STIM
- inhibition at 10 µg/mL [2, 6]: 17%
- inhibition at 20 µg/mL ([2]; dose 20 μ/ml, read-out: % Inh. Avg.): 16%
- inhibition at 25 µg/mL ([2]; read-out: % Inh.): 8%

SMILES: CCCCCCCCCCCCCCCCOCC(COP(=O)([O-])OCC[N+](C)(C)C)OCC(=O)O (stereo not shown) [2,5,7-Trioxa-6-phosphanonan-9-aminium, 1-carboxy-3-[(hexadecyloxy)methyl]-6-hydroxy-N,N,N-trimethyl-, hydroxide, inner salt, 6-oxide]
- inhibition at 10 µg/mL [1, 4]: 6%
- inhibition at 25 µg/mL [1, 8]: 30%
- inhibition at 20 µg/mL ([2]; dose 20 μ/ml, read-out: % Inh.): 44%

SMILES: CCCCCCCCCCCCCCCCOCC(COP(=O)([O-])OCC[N+](C)(C)C)OP(=O)(OC)OCCCCC (single isomer, unassigned) [3,5,8,10-Tetraoxa-4,9-diphosphapentadecan-1-aminium, 7-[(hexadecyloxy)methyl]-4-hydroxy-9-methoxy-N,N,N-trimethyl-, hydroxide, 4-(inner salt),4,9-dioxide, more polar isomer]
- inhibition at 10 µg/mL [1, 4]: 0%
- IC50 ([2]; read-out: IC50 (converted)): 3.87 µM

SMILES: CCCCCCCCCCCCCCCCOCC(O)(COP(=O)([O-])OCC[N+](C)(C)C)CC(N)CC (stereo not shown) [7-(2-Aminobutyl)-4,7-dihydroxy-N,N,N-trimethyl-3,5,9-trioxa-4-phosphapentacosan-1-aminium, hydroxide, inner salt, 4-oxide]
- inhibition at 10 µg/mL [3]: 25%
- inhibition at 20 µg/mL [3]: 61%
- IC50 [3]: 34.7 µM
- inhibition at 10 µg/mL ([2]; dose 10 μ/ml, read-out: % Inh.): 89%
- inhibition at 20 µg/mL ([2]; dose 20 μ/ml, read-out: % Inh.): 94%
- IC50 ([2]; read-out: IC50 (converted)): 2.35 µM

SMILES: CCCCCCCCCCCCCCCCOCC(COP(=O)([O-])OCC[N+](C)(C)C)OP(=O)(OC)OCCCCC (single isomer, unassigned) [3,5,8,10-Tetraoxa-4,9-diphosphapentadecan-1-aminium, 7-[(hex] [3,5,8,10-Tetraoxa-4,9-diphosphapentadecan-1-aminium, 7-[(hexadecyloxy)methyl]-4-hydroxy-9-methoxy-N,N,N-trimethyl-, hydroxide, 4-(inner salt), 4,9-dioxide, less polar isomer]
- % Inh. ([1]; dose 25 μ/ml): STIM
